Laboratory results reported in patent US20060210568A1, “Methods and compositions for cancer treatment” (priority 2003, published 2006).

Tests used:
[1] = tested on: ADRP expression in MCF-7 cells; experiment: ADRP expression in MCF-7 cells (RT-PCR); type: cell-based, human; settings: for increase of ADRP level over the endogenous level: treatment of cells, depends on length of treatment
Description: Ciglitazone is known to bind and activate the nuclear receptor PPAR gamma, which has been shown in MCF-7 to stimulate expression of beta casein (Mueller et al., 1998).
It is known that estradiol plays a dual role in mammary epithelial cells as a stimulator of proliferation and also as a differentiation factor at different times of the developmental stages of mammary gland development (Kumar et al, 2000).
A specific siRNA against human ADRP mRNA (hADRP-siRNA) was designed using the sequence between +225 to +244 of human ADRP as a target. A control siRNA was designed using a portion of the green fluorescence protein gene. Twenty-one-oligonucleotide RNA for hADRP (rArUrU rGrCrA rGrUrU rGrCrC rArArU rArCrC rUTT and rArGrG rUrArU rUrGrG rCrArA rCrUrG rCrArA rUTT) with 3′dTdT overhangs, and for GFP (rGrGrC rUrArC rGrUrC rCrArG rGrArG rCrGrC rArCrC and rUrGrC rGrCrU rCrCrU rGrGrA rCrGrU rArGrC rCrUrU) were synthesized (Integrated DNA Technologies, Inc., Coralville, Iowa). Transfection of siRNA duplex was performed in MCF-7 cells using LipofectAMINE 2000 reagents as described by the manufacturer (Invitrogen, Carlsbad, Calif.). MCF-7 EV grown to 50% confluency in 6-well plates were transfected with 100 pmole of siRNA per well in serum free-DMEM/F12. After 5 h, the medium was replaced with DMEM/F12 containing 5% FBS. Control MCF-7 cells were treated with GFP siRNA. The cells were then treated with 50 μM (50 micromolars) ciglitazone. After 48 h of incubation, RNA samples were collected by Trizol method to measure human ADRP expression and beta casein expression by RT-PCR as described above.

EV MCF-7 cells = experiment: proliferation assay, EV MCF-7 control cells; type: cell-based, human; settings: estradiol 10^−9 M, insulin 10 microgramsg/ml, EGF 25 ng/ml in medium
Experimental: For proliferation assay, the cells were seeded at a density of 5×10^4 cells in phenol red-free α-MEM (PFME) supplemented with 5% of charcoal extracted fetal bovine serum (CHX-FBS) in 6-well culture plates (Costar). Cells were treated with 1 nM 17β-estradiol alone. Control cells were treated with vehicle alone (0.01% DMSO). Cell numbers were counted by hemacytometer every two days. Medium was changed at day 4. Each time point was performed in triplicate. Specifically, the medium contained estradiol (E2 at 10^−9 M), insulin (10 microgramsg/ml) and epidermal growth factor (EGF at 25 ng/ml).

[2] = tested on: ADRP overexpressing cells (MCF7-C4); experiment: proliferation assay, ADRP overexpressing MCF-7 cells; type: cell-based, human; settings: estradiol 10^−9 M, insulin 10 microgramsg/ml, EGF 25 ng/ml in medium
Experimental: The vector used to over-express ADRP in MCF-7 cells is the ADRP-pcDNA3 vector described in Gao and Serrero, 1999. The G418 resistance gene was used as selectable marker. MCF-7 cells were transfected with the ADRP-pcDNA3 plasmid, using the lipofectamine method. Specifically, MCF-7 cells (WT) were plated onto 60-mm dish at the concentration of 2×10^5 cell per plate in 5% fetal bovine serum (FBS) in DMEM/F12 (1:1 mixture of Dulbecco's modified Eagle's medium and Ham' nutrient F12 medium) overnight before transfection. Cells were washed once with serum-free DMEM/F12 (without antibiotic). The lipofectamine method was used for the transfection. Specifically, 2 μg mouse ADRP pcDNA3 construct was used. Transfection was carried on according to manufacturer's recommendations, with 15 μl of lipofectamine and 5 hours of incubation. After transfection, the medium was replaced with 5% FBS DMEM/F12 and the cells were incubated overnight. G418 at the concentration of 800 μg/ml was added the day after for selection. Cells were selected with this medium for 3 weeks. Six clones were isolated and subjected to RT-PCR to determine the existence of the transfection construct. For proliferation assay, the cells were seeded at a density of 5×10^4 cells in phenol red-free α-MEM (PFME) supplemented with 5% of charcoal extracted fetal bovine serum (CHX-FBS) in 6-well culture plates (Costar). Cells were treated with 1 nM 17β-estradiol alone. Control cells were treated with vehicle alone (0.01% DMSO). Cell numbers were counted by hemacytometer every two days. Medium was changed at day 4. Each time point was performed in triplicate. Specifically, the medium contained estradiol (E2 at 10^−9 M), insulin (10 microgramsg/ml) and epidermal growth factor (EGF at 25 ng/ml).

[3] = tested on: ADRP expression in adipocytes; settings: cited from earlier work

CC1(COc2ccc(CC3SC(=O)NC3=O)cc2)CCCCC1 (centres unmarked) [ciglitazone]
increase of ADRP level over the endogenous level [1]: over 10 fold

C[C@]12CC[C@@H]3c4ccc(O)cc4CC[C@H]3[C@@H]1CC[C@@H]2O [estradiol, 17β-estradiol, reference compound]
proliferation of EV MCF-7 cells (control) (EV MCF-7 cells): stimulated the proliferation | ADRP expression ([1]; MCF-7 cells, FIG. 7): stimulates ADRP expression | increase of ADRP level over the endogenous level [1]: 2-3 fold | proliferation of ADRP overexpressing cells [2]: no effect

CC(C)Cc1ccc(C(C)C(=O)O)cc1 (centres unmarked) [ibuprofen]
ADRP expression in adipocytes [3]: stimulated

COc1ccc2c(c1)c(CC(=O)O)c(C)n2C(=O)c1ccc(Cl)cc1 [indomethacin]
ADRP expression in adipocytes [3]: stimulated

epidermal growth factor: growth factor known to stimulate the proliferation of mammary epithelial cells
proliferation of EV MCF-7 cells (control) (EV MCF-7 cells): stimulated the proliferation | proliferation of ADRP overexpressing cells [2]: no effect

insulin: hormone known to stimulate the proliferation of mammary epithelial cells
proliferation of EV MCF-7 cells (control) (EV MCF-7 cells): stimulated the proliferation | proliferation of ADRP overexpressing cells [2]: no effect
